Literature values in patent US20170216439A1, “OTIC FORMULATIONS FOR THE TREATMENT OF CERUMINOSIS” (Otonomy, Inc., priority 2014, published 2017).

Columns and labels:
[1] = system: S. aureus
[2] = system: S. pyogenes
[3] = for efficacy against tinnitus: in vivo
[4] = system: bacterial lesions; conditions: wild-type C57BL/6 and mutant flake mice

CCCCCCCC/C=C\CCCCCCCC(=O)O [oleic acid]
inhibitory against S. aureus [1]: inhibitory | inhibitory against S. pyogenes [2]: inhibitory

CNCCC=C1c2ccccc2CCc2ccccc21 [nortriptyline]
efficacy against tinnitus [3]: demonstrated efficacy

CCCCCC/C=C\CCCCCCCC(=O)O [palmitoleic acid]
inhibitory against S. aureus [1]: inhibitory | inhibitory against S. pyogenes [2]: inhibitory

CN[C@H]1CC[C@@H](c2ccc(Cl)c(Cl)c2)c2ccccc21 [sertraline]
efficacy against tinnitus [3]: demonstrated efficacy

Fc1ccc([C@@H]2CCNC[C@H]2COc2ccc3c(c2)OCO3)cc1 [paroxetine]
efficacy against tinnitus [3]: demonstrated efficacy

CCN(CC)CC(=O)Nc1c(C)cccc1C [Lidocaine]
reduces or eliminates the noise associated with tinnitus, share of sufferers ([3]; administered by IV): 60-80%

CCCCCC/C=C\CCCCCCCC(=O)O [palmitoleate]
size of bacterial lesions [4]: decrease the size of bacterial lesions
